According to patent publication US20040266802A1, “Tricyclic analgesics” (priority 1999, published 2004):
pIC50, pKi: −log10 of the molar value. Structures can show the parent of a compound that is named as a salt. Where two headings read alike, the source gives them in different places.

What was measured:
[1] = tested on: Na+ channels; experiment: 22Na+ influx into SK-N-SH neuroblastoma cells under veratridine stimulation; format: cell-based
[2] = tested on: Chronic Hyperalgesia Induced by PGE2 in Rats; experiment: Analgesic activity on chronic hyperalgesia induced by PGE2 in rats (Randall and Selitto test); format: in vivo; details: Rattus norvegicus, sc, 0.5 h; Sprague-Dawley rats, 10 mg/kg s.c., 30 min before measuring the pain threshold, compared with vehicle controls
Procedure: Analgesic Activity on Chronic Hyperalgesia Induced by PGE2 in Rats
The test consists in determining the analgesic effect of the test compound in rats by the Randall and Selitto test, in which chronic hyperalgesia has been triggered by intraplantar injection of PGE2 over 4 days into a leg, according to a protocol adapted from Nakamura-Craig et al (Pain, 63: 33-37. 1995).
The study is carried out on batches of 120-140 g Sprague-Dawley rats to which 100 ng of PGE2 is administered in a volume of 100 μl by the intraplantar route, for 4 consecutive days twice a day; this causes chronic hyperalgesia in the leg from the 5th day, for at least one week. On the day of the test, in the morning, the threshold of reaction to pain is checked by the Randall and Selitto test, and animals whose threshold is ψ100 arbitrarily defined units are selected. In the afternoon, the measurement is repeated after prior administration by the s.c. route of a solution of the test compound; this administration is carried out 30 min before measuring the pain threshold. For each batch, the analgesic activity (%) is calculated from the means of the thresholds measured before and after treatment, as compared with that of the control animals, who received only the vehicle.

[3] = molecular target: Na+ channel; details: rat cerebral cortex synaptosomes, 10 nM [3H]batrachotoxin, 90 min at 25° C.; read-out: [3H] BTX assay: Na+ channel binding Ki
[4] = human SK-N-SH cells, veratridine-induced influx, 10 min at 37° C.; read-out: 22Na influx IC50

Row | Compound | melting point | pIC50 [1, 4] | inhibition in vivo at 10 mg/kg [2] | other results
1 | O=C1c2ccccc2CCC12CCNCC2 (as salt: hydrochloride) | 235 °C |  |  | 
2 | O=C1c2ccccc2CCC12CCN(CCc1ccccc1)CC2 (as salt: hydrochloride) | > 275 °C |  |  | 
3 | O=C1c2ccccc2CCC12CCN(CC1CC1)CC2 (as salt: hydrochloride) [Example 2, 1′-cyclopropylmethyl-3,4-Dihydro-1-oxospiro[naphthalene-2(1H),4′-piperidine]] | 243 °C |  |  | 
4 | O=C1c2ccccc2CCC12CCN(CC1CCC1)CC2 (as salt: hydrochloride) [Example 3, 1′-cyclobutylmethyl-3,4-Dihydro-1-oxospiro[naphthalene-2(1H),4′-piperidine]] | 235 °C |  |  | 
5 | O=C1c2ccccc2CCC12CCN(CC1CCCCC1)CC2 (as salt: hydrochloride) [Example 4, 1′-cyclohexylmethyl-3,4-Dihydro-1-oxospiro[naphthalene-2(1H),4′-piperidine]] | 265 °C |  |  | 
6 | O=C1c2ccccc2CCC12CCN(CCC1CC1)CC2 (as salt: hydrochloride) [Example 6, 1′-cyclopropylethyl-3,4-Dihydro-1-oxospiro[naphthalene-2(1H),4′-piperidine]] | 244 °C |  |  | 
7 | O=C1c2ccccc2CCC12CCN(C/C=C/c1ccccc1)CC2 (as salt: hydrochloride) [Example 7, 1′-cinnamyl-3,4-Dihydro-1-oxospiro[naphthalene-2(1H),4′-piperidine]] | 228 °C |  |  | 
8 | O=C1c2ccccc2CCC12CCN(CCC(c1ccccc1)c1ccccc1)CC2 (as salt: hydrochloride) [Example 8, 1′-(3,3-diphenylpropyl)-3,4-Dihydro-1-oxospiro[naphthalene-2(11H),4′-piperidine]] | 257 °C |  |  | 
9 | Cc1cc(C)c2c(c1)C(=O)C1(CC2)CCN(CC2CC2)CC1 (as salt: hydrochloride) [Example 9, 1′-(cyclopropylmethyl)-3,4-Dihydro-5,7-dimethyl-1-oxospiro[naphthalene-2(1H),4′-piperidine]] | > 260 °C |  |  | 
10 | COc1ccc2c(c1)CCC1(CCN(CC3CC3)CC1)C2=O (as salt: hydrochloride) [Example 10, 1′-(cyclopropylmethyl)-3,4-Dihydro-6-methoxy-1-oxospiro[naphthalene-2(1H),4′-piperidine]] | > 255 °C |  |  | 
11 | COc1cccc2c1CCC1(CCN(CC3CC3)CC1)C2=O (as salt: hydrochloride) [Example 11, 1′-(cyclopropylmethyl)-3,4-Dihydro-5-methoxy-1-oxospiro[naphthalene-2(1H),4′-piperidine]] | 244 °C |  |  | 
12 | O=C1c2ccccc2CCC12CCN(CC1CC1)CC2 [Example 2, 1′-cyclopropylmethyl-3,4-Dihydro-1-oxospiro[naphthalene-2(1H),4′-piperidine]] |  | 4.97 | 49% | 
13 | O=C1c2ccccc2CCC12CCN(CCC1CC1)CC2 [Example 6, 1′-cyclopropylethyl-3,4-Dihydro-1-oxospiro[naphthalene-2(1H),4′-piperidine]] |  | 5.47 | 67% | 
14 | O=C1c2ccccc2CCC12CCN(C/C=C/c1ccccc1)CC2 [Example 7, 1′-cinnamyl-3,4-Dihydro-1-oxospiro[naphthalene-2(1H),4′-piperidine]] |  | 6.03 | 57% | 
15 | O=C1c2ccccc2CCC12CCN(CCC(c1ccccc1)c1ccccc1)CC2 [Example 8, 1′-(3,3-diphenylpropyl)-3,4-Dihydro-1-oxospiro[naphthalene-2(11H),4′-piperidine]] |  | 6.01 | 47% | 
16 | COc1ccc2c(c1)CCC1(CCN(CC3CC3)CC1)C2=O [Example 10, 1′-(cyclopropylmethyl)-3,4-Dihydro-6-methoxy-1-oxospiro[naphthalene-2(1H),4′-piperidine]] |  | 4.52 | 100% | 
17 | O=C1c2ccccc2CCC12CCN(CCCc1ccccc1)CC2 [Example 33] |  |  | 81% | pIC50 ([1]; read-out: 22Na influx IC50; human SK-N-SH cells, veratridine-induced influx, 10 min at 37° C.): 5.92; pKi [3]: 6.54
18 | COc1cccc2c1CCC1(CCN(CC3CCC3)CC1)C2=O [Example 36] |  | 5.47 | 51% | pKi [3]: 6.32
19 | COc1ccc2c(c1)CCC1(CCN(CCC3CC3)CC1)C2=O [Example 42] |  | 5.37 | 46% | 
20 | COc1ccc2c(c1)CCC1(CCN(CC3CCC3)CC1)C2=O [Example 43] |  | 5.22 | 39% | 
21 | COc1ccc2c(c1)CCC1(CCN(CCCc3ccccc3)CC1)C2=O [Example 47] |  | 6.22 | 66% | 
22 | COc1ccc2c(c1)C(=O)C1(CC2)CCN(CCC2CC2)CC1 [Example 49] |  | 5.12 | 38% | pKi [3]: 5.66
23 | COc1ccc2c(c1)CCC1(CCNCC1)C2=O [Example 70, 3.4-Dihydro-6-methoxy-1-oxospiro[naphthalene-2(1H),4′-piperidine]] |  |  | 46% | 
